Common to all, as to test: MIC, CLSI broth microdilution
What all share (type): cell-based
A general note: In broth dilution the organism is exposed to a series of concentrations in liquid medium.

In assay [1] the test system is S. pneumoniae ASPN001 (Fluoroquinolone-susceptible, ATCC49619). The conditions noted are these: Table 2. Put shortly:
(§1)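 CLSI M7-A7 broth microdilution; 2-fold serial dilutions in Mueller Hinton Broth, 1:1 with inoculum; final 5×10^5 CFU/mL; 35° C., 20 h, ambient air. QC strains E. coli ATCC 25922, P. aeruginosa ATCC 27853, S. aureus ATCC 29213.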

For assay [2], the system named is S. aureus ASAU001 (Fluoroquinolone-susceptible, ATCC29213). To be noted: Table 2. The procedure, abridged: as §1
For assay [3], the system named is A. baumannii AABA1009 (Fluoroquinolone-resistant). To be noted: Table 2. Put shortly: as §1
In assay [4] the test system is S. aureus ASAU1031 (Fluoroquinolone-resistant). To be noted: Table 2. Put shortly:
as §1

The subject of assay [5] is P. aeruginosa APAE054 (Fluoroquinolone-resistant). The conditions noted are these: Table 2. The procedure, abridged: as §1
Assay [6] relates to A. baumannii AABA1065 (Fluoroquinolone-susceptible). The conditions noted are these: Table 2. Put shortly: as §1
Assay [7] relates to S. pneumoniae ASPN1027 (Fluoroquinolone-resistant). The conditions noted are these: Table 2. The procedure, abridged: as §1
The test system of assay [8] is E. coli AECO001 (Fluoroquinolone susceptible, ATCC25922). To be noted: Table 2, 35° C., 20 hours. Put shortly:
as §1

Assay [9] concerns P. aeruginosa APAE001 (Fluoroquinolone-susceptible, ATCC27853). To be noted: Table 2. Put shortly:
as §1

In assay [10] the test system is E. coli AECO066 (Fluoroquinolone-resistant). To be noted: Table 2. Put shortly: as §1

As to `O=C(O)c1cn(C2CC2)c2c3c(c(F)cc2c1=O)N1CCCC1CSC3` (stereo not drawn) [8/10, 13-Cyclopropyl-8-fluoro-10-oxo-3a,4,5,6,10,13-hexahydro-1H,3H-pyrrolo[2′,1′:3,4][1,4]thiazepino[5,6-h]quinoline-11-carboxylic acid], the “MIC ASPN 001” value in [1] was “C (MIC's of greater than 8.0 μg/mL = C)”. Also, the “MIC ASAU 001” value in [2] was “A (MIC's of 1.0 μg/mL or less = A)”. Also, the “MIC AABA 1009” value in assay [3] is “C (MIC's of greater than 8.0 μg/mL = C)”. Further, the “MIC ASAU 1031” value in assay [4] is on record as “C (MIC's of greater than 8.0 μg/mL = C)”. In assay [5], the “MIC APAE 054” value is “C (MIC's of greater than 8.0 μg/mL = C)”. In addition, in assay [6], the “MIC AABA 1065” value was “B (MIC's of greater than 1.0 μg/mL to 8.0 μg/mL = B)”. Moreover, in assay [7], the “MIC ASPN 1027” value is given as “C (MIC's of greater than 8.0 μg/mL = C)”. The “MIC AECO 001” value in [8] was “B (MIC's of greater than 1.0 μg/mL to 8.0 μg/mL = B)”. Besides, the “MIC APAE 001” value in [9] is on record as “C (MIC's of greater than 8.0 μg/mL = C)”. In addition, the “MIC AECO 066” value in assay [10] was “C (MIC's of greater than 8.0 μg/mL = C)”.
On to `O=C(O)c1cn(C2CC2)c2c3c(c(F)cc2c1=O)N1CC[C@H](O)[C@H]1CC=C3` [19/5, (7aR,8S)-4-Cyclopropyl-12-fluoro-8-hydroxy-1-oxo-4,7,7a,8,9,10-hexahydro-1H-pyrrolo[1′,2′:1,7]azepino[2,3-h]quinoline-2-carboxylic acid], for which, in assay [1], the “MIC ASPN 001” value was “B (MIC's of greater than 1.0 μg/mL to 8.0 μg/mL = B)”. The “MIC ASAU 001” value in [2] is “A (MIC's of 1.0 μg/mL or less = A)”. For the same compound, the “MIC AABA 1009” value in assay [3] is recorded as “C (MIC's of greater than 8.0 μg/mL = C)”. Also, in assay [4], the “MIC ASAU 1031” value is “C (MIC's of greater than 8.0 μg/mL = C)”. For the same compound, the “MIC APAE 054” value in assay [5] is reported as “C (MIC's of greater than 8.0 μg/mL = C)”. Besides, the “MIC AABA 1065” value in assay [6] is listed as “B (MIC's of greater than 1.0 μg/mL to 8.0 μg/mL = B)”. Moreover, the “MIC ASPN 1027” value in assay [7] is listed as “C (MIC's of greater than 8.0 μg/mL = C)”. For the same compound, the “MIC AECO 001” value in assay [8] is on record as “B (MIC's of greater than 1.0 μg/mL to 8.0 μg/mL = B)”. For the same compound, in assay [9], the “MIC APAE 001” value is “C (MIC's of greater than 8.0 μg/mL = C)”. Moreover, in [10], the “MIC AECO 066” value is reported as “C (MIC's of greater than 8.0 μg/mL = C)”.
Consider `O=C(O)c1cn(C2CC2)c2c3c(c(F)cc2c1=O)N1C[C@H](O)C[C@H]1CCC3` [18/8, (7aR,9R)-4-Cyclopropyl-12-fluoro-9-hydroxy-1-oxo-4,5,6,7,7a,8,9,10-octahydro-1H-pyrrolo-[1′,2′:1,7]aze-pino[2,3-h]quinoline-2-carboxylic acid], for which the “MIC ASPN 001” value in assay [1] was “A (MIC's of 1.0 μg/mL or less = A)”. Further, the “MIC ASAU 001” value in assay [2] is given as “A (MIC's of 1.0 μg/mL or less = A)”. Also, the “MIC AABA 1009” value in assay [3] is reported as “C (MIC's of greater than 8.0 μg/mL = C)”. In addition, the “MIC ASAU 1031” value in assay [4] was “B (MIC's of greater than 1.0 μg/mL to 8.0 μg/mL = B)”. The “MIC APAE 054” value in [5] is on record as “C (MIC's of greater than 8.0 μg/mL = C)”. Moreover, in assay [6], the “MIC AABA 1065” value is on record as “B (MIC's of greater than 1.0 μg/mL to 8.0 μg/mL = B)”. The “MIC ASPN 1027” value in [7] is reported as “C (MIC's of greater than 8.0 μg/mL = C)”. In addition, the “MIC AECO 001” value in [8] is recorded as “A (MIC's of 1.0 μg/mL or less = A)”. In assay [9], the “MIC APAE 001” value is “C (MIC's of greater than 8.0 μg/mL = C)”. For the same compound, the “MIC AECO 066” value in assay [10] is recorded as “C (MIC's of greater than 8.0 μg/mL = C)”.

The values are drawn from patent US20120058989A1, “ANTIBACTERIAL FLUOROQUINOLONE ANALOGS” (Achaogen, Inc., priority 2008, published 2012).
